Measurements reported in US8524890B2, “Water-soluble phthalocyanine dye” (National Institute for Materials Science, priority 2009, dated 2013).

Key:
Type in all cases: physicochemical
[1] = Solubility and aggregation in pure water
[2] = Solubility and aggregation in aqueous Triton-X100 solution (optical absorption spectra, FIG. 8, FIG. 9)
[3] = Solubility and aggregation in mixed water/ethanol solvent (optical absorption spectra, FIG. 7)

- aggregation in pure water [1]: strong aggregation
- concentration up to which the dye remains disaggregated ([2]; Triton-X100 2% (w/v), absorbance at around 730 nm (FIG. 9)): 20 µM
- solubility in the presence of Triton-X100 ([2]; aqueous, Triton-X100 present): grows high
- aggregation state ([3]; 10% (v/v) ethanol): substantially aggregated form
- water solubility on addition of alcohol ([3]; alcohol added): greatly improved
Substance: [Sb(tbpc)(SO4)(HSO4)].4H2O [Compound 2]
- aggregation state above certain concentration of the surfactant ([2]; aqueous Triton-X100, above certain surfactant concentration (FIG. 8)): remains dissolved in a disaggregated form
- aggregation state ([3]; 30% (v/v) ethanol): a peak ascribable to disaggregated species is clearly observed
- aggregation state ([3]; 50% ethanol): contribution of aggregated species is negligible
